Laboratory results as given in patent publication US7935670B2, “Hepatitis C virus inhibitors” (Bristol-Myers Squibb Company, priority 2006, dated 2011).
Where two headings read alike, the source gives them in different places.

Target: T1, HCV NS3/4A protease complex, BMS strain (UniProt P27958, species not given/STRAIN_BMS)
T1 construct: given for H77 and J4L6S, not expressly for BMS; fused on or other part: three-lysine solubilising tail at the end of NS4A (given for the H77 and J4L6S constructs)
Assay: FRET peptide assay to monitor HCV NS3/4A proteolytic activity (BMS strain)
Assay type: biochemical, HCV genotype 1a
Excerpt: HCV NS3 protease complexes, derived from the BMS strain, H77 strain or J4L6S strain, were generated, as described below. These purified recombinant proteins were generated for use in a homogeneous assay (see below) to provide an indication of how effective compounds of the present disclosure would be in inhibiting HCV NS3 proteolytic activity.
Serum from an HCV-infected patient was obtained from Dr. T. Wright, San Francisco Hospital. An engineered full-length cDNA (compliment deoxyribonucleic acid) template of the HCV genome (BMS strain) was constructed from DNA fragments obtained by reverse transcription-PCR(RT-PCR) of serum RNA (ribonucleic acid) and using primers selected on the basis of homology between other genotype 1a strains. From the determination of the entire genome sequence, a genotype 1a was assigned to the HCV isolate according to the classification of Simmonds et al. (See P Simmonds, K A Rose, S Graham, S W Chan, F McOmish, B C Dow, E A Follett, P L Yap and H Marsden, J. Clin. Microbiol., 31(6), 1493-1503 (1993)). […] The infectious clones, H77 (1a genotype) and J4L6S (1b genotype) were obtained from R. Purcell (NIH) and the sequences are published in Genbank (AAB67036, see Yanagi, M., Purcell, R. H., Emerson, S. U. and Bukh, J. Proc. Natl. Acad. Sci. U.S.A. 94(16), 8738-8743 (1997); AF054247, see Yanagi, M., St Claire, M., Shapiro, M., Emerson, S. U., Purcell, R. H. and Bukh, J, Virology 244 (1), 161-172. (1998)).
NS3/4A protease complex-containing fractions were pooled and loaded on a desalting column Superdex-S200 pre-equilibrated with buffer D (25 mM HEPES, pH 7.5, 20% glycerol, 300 mM NaCl, 0.2% Triton X-100, 10 mM βME). Sample was loaded at a flow rate of 1 mL/min. NS3/4A protease complex-containing fractions were pooled and concentrated to approximately 0.5 mg/ml. The purity of the NS3/4A protease complexes, derived from the BMS, H77 and J4L6S strains, were judged to be greater than 90% by SDS-PAGE and mass spectrometry analyses. The enzyme was stored at −80° C., thawed on ice and diluted prior to use in assay buffer.
The purpose of this in vitro assay was to measure the inhibition of HCV NS3 protease complexes, derived from the BMS strain, H77 strain or J4L6S strain, as described above, by compounds of the present disclosure. This assay provides an indication of how effective compounds of the present disclosure would be in inhibiting HCV NS3 proteolytic activity.
In order to monitor HCV NS3/4A protease activity, an NS3/4A peptide substrate was used. The substrate was RET S1 (Resonance Energy Transfer Depsipeptide Substrate; AnaSpec, Inc. cat #22991)(FRET peptide), described by Taliani et al. in Anal. Biochem. 240(2):60-67 (1996). The sequence of this peptide is loosely based on the NS4A/NS4B natural cleavage site for the HCV NS3 protease except there is an ester linkage rather than an amide bond at the cleavage site. The peptide also contains a fluorescence donor, EDANS, near one end of the peptide and an acceptor, DABCYL, near the other end. The fluorescence of the peptide is quenched by […] resonance energy transfer (RET) between the donor and the acceptor, but as the NS3 protease cleaves the peptide the products are released from RET quenching and the fluorescence of the donor becomes apparent.
The peptide substrate was incubated with one of the three recombinant NS3/4A protease complexes, in the absence or presence of a compound of the present disclosure. The inhibitory effects of a compound were determined by monitoring the formation of fluorescent reaction product in real time using a Cytofluor Series 4000.
Assay buffer: 50 mM HEPES, pH 7.5; 0.15 M NaCl; 0.1% Triton; 15% Glycerol; 10 mM βME. Substrate: 2 μM final concentration (from a 2 mM stock solution in DMSO stored at −20° C.). HCV NS3/4A protease type 1a (1b), 2-3 nM final concentration (from a 5 μM stock solution in 25 mM HEPES, pH 7.5, 20% glycerol, 300 mM NaCl, 0.2% Triton-X100, 10 mM βME). […]

T1 sequence (P27958 1027-1657, change not shown, one chain of several): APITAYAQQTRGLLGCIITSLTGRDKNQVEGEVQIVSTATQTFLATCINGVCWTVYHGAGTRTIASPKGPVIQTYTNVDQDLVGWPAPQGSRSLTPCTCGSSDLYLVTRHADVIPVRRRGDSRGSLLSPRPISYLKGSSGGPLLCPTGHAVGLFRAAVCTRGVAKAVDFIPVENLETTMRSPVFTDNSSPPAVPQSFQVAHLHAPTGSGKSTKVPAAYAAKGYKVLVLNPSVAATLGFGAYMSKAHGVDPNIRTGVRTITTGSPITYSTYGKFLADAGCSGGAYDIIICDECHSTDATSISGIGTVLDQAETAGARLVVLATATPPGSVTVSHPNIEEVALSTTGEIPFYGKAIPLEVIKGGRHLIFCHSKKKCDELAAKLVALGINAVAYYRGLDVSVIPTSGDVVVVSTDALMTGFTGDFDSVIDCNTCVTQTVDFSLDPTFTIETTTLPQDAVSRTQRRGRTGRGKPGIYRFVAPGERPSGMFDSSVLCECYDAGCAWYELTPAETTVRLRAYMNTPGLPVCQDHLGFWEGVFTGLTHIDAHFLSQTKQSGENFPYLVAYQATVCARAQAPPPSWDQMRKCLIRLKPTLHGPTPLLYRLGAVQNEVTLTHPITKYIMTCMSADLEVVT

C=C[C@@H]1C[C@]1(NC(=O)[C@@H]1C[C@@H](OC(=O)c2ccccc2)CN1C(=O)[C@@H](NC(=O)OC(C)(C)C)C(C)(C)C)C(=O)NS(=O)(=O)C1CC1 [Compound 1]
IC50 (read-out: Activity Range (IC50), NS3/4A BMS strain): 1 to 50 nM
IC50 (read-out: IC50 against the NS3/4A BMS strain in the enzyme assay, BMS strain): 13 nM
